Assay results reported in US7897340B2, “Use of tumor susceptibilty gene 101 (TSG 101) as a prognostic and diagnostic marker” (The Board of Regents of the University of Texas System, priority 2006, dated 2011).
“Also recorded” adds a separate entry of the source.

Assays:
TSG101 = TSG101 expression after siRNA by semiquantitative PCR and immunoblotting in SKOV-3 cells; assay type: cell-based, human; settings: SKOV-3, semi-quantitative PCR and immunoblotting
Text: (§1) A siRNA duplex specific for TSG101 (targeting TSG101 coding sequence 413-433) and a scrambled random control siRNA with matching GC content were obtained from Dharmacon. This specific TSG101 siRNA duplex (sense: CCUCCAGUCUUCUCUCGUCdTdT (SEQ ID NO: 7) and antisense: dTd[…] (SEQ ID NO: 8) have been successfully applied to suppress the expression of endogenous TSG101 in several high quality studies (Amit et al., 2004; Garrus et al., 2001; Hewitt et al., 2002; Ismaili et al., 2005). Transfection of the siRNAs was according to the manufacturer's instructions using Lipofectamine 2000 (Invitrogen).
(§2) Total RNA was isolated from cells using Trizol reagent (Invitrogen), and concentration was determined by absorbance at 260 nm. Semiquantitative RT-PCR was carried out using 1 μg of isolated total RNA. Primers used for RT-PCR were TSG101 forward 5′-[…]-3′ (SEQ ID NO: 1), reverse 5′-[…]-3′ (SEQ ID NO:2), p21 forward 5′-[…]-3′ (SEQ ID NO: 9), reverse 5′-CCGTTTTCGACCCTGAGAG-3′ (SEQ ID NO:10).
Cells transfected with either control or TSG101 siRNA were passaged and subsequently harvested on the appropriate days by trypsinizing cells, washing pelleted cells in PBS and then lysing cells in SDS lysis buffer. Protein concentration of cell lysates was assayed with the Bio-Rad protein assay reagent. […] Immunoblots were developed by enhanced chemiluminescence (Pierce, Rockford, Ill.).

CITED2 mRNA = CITED2 mRNA by RT-PCR in SKOV-3 cells; assay type: cell-based, human; settings: SKOV-3, 3 days following siRNA transfection
Description: (§3) Total RNA was isolated from cells using Trizol reagent (Invitrogen), and concentration was determined by absorbance at 260 nm. Real-Time PCR analysis was carried out using fluorescent TSG101 primers on an Applied Biosystems Prism 7000 Sequence Detection System. RT-PCR was carried out for TSG101 and HIF-1α using 1 μg of isolated total RNA under the following parameters: 94° C. 1 min, 57° C. 1 min and 72° C. 1.5 min, 35 cycles. Primers used for RT-PCR were TSG10 forward 5′-[…]-3′ (SEQ ID NO: 1), reverse 5′-TTTCCTCC TTCATCCGCCATCTC-3′ (SEQ ID NO: 2), CITED2 forward 5′-[…]-3′ (SEQ ID NO: 3), reverse 5′-[…]-3′ (SEQ ID NO: 4), HIF-1a ? forward 5′-[…]-3′ (SEQ ID NO: 5), reverse 5′-[…]-3′ (SEQ ID NO: 6).
as §1

SKOV-3 cells [1] = assay: Cell growth by counting; assay type: cell-based, human
Description: FIGS. 11A-F show association of suppression of TSG101 expression with cell cycle arrest and growth inhibition. In FIG. 11A, SKOV-3 cells were transfected with TSG101 and control siRNAs and RNA and protein were isolated 48 hours post transfection. Levels of mRNA were determined by semiquantitative RT-PCR and protein levels were determined by immunoblotting, respectively. Similar results were obtained from more than 4 independent experiments. In FIG. 11B, TSG101 or control siRNA transfected cells were plated at 2.5×10^4 cells/well in 6 well plates and cell growth was determined by counting over successive days. Each data point represents the average of 3 wells. Control and TSG101 knockdown SKOV-3 cells were stained with propidium iodide and analyzed by FACS on day 4 (FIG. 11C) or day 6 (FIG. 11D) following transfection. Sub G1 cells are calculated as a supplemental population. In FIG. 11E, SKOV-3 cell lysates were obtained 6 days following transfection with control or TSG101 siRNA. Caspase activity was determined using the fluorogenic substrate DEVD-AFC. In FIG. 11F, control and TSG101 knockdown SKOV-3 cells on day 5 following siRNA transfection were stained using Hoechst 22658 and Nuclear condensation was observed on a fluorescent microscope. Cells with condensed/fragmented DNA were quantified from at least 8 images, and represented as a percentage of the total number of cells. […]

SKOV-3 cells [2] = assay: In vivo tumor formation assay in nude mice; set-up: species or system Balb/c athymic nude mice; settings: siRNA-transfected SKOV-3 cells injected s.c. into flanks of nude mice, four mice, vs control siRNA cells
Description: SKOV-3 cells were trypsinized 3 days following transfection with either Control or TSG101 siRNA, and subsequently washed and resuspended in phosphate-buffered saline at 5×10^6 cells/ml. 200 μl (1×10^6 cells) of control or TSG101 transfected SKOV-3 cells were injected s.c. into the right and left flanks (respectively) of 4-6 week old Balb/c athymic nude mice (Jackson Laboratory, Bar Harbor, Me.). Mice were examined every 5 days until visible tumors appeared. Subsequently, tumor volume measurements were taken every 3-5 days, and mice were sacrificed 6 weeks after initial injections, and a final measurement of tumor volume was taken.
Further, in vivo tumor formation assay in nude mice was performed to determine if TSG101 knockdown affected the tumorigenicity of SKOV-3 cells. Seventy-two hours post transfection, SKOV-3 cells transfected either with TSG101 or control siRNA duplex were pair-wise injected subcutaneously into the left or right flanks, respectively, of the same BALB/c athymic nude mouse. Tumor growth was monitored for 6 weeks, at which time the tumors were harvested and tumor volume was measured. […] Due to the transient nature of the siRNA duplex, the actual effect of TSG101 gene silencing should be more prominent.

p21 mRNA = p21 mRNA by RT-PCR in SKOV-3 cells; assay type: cell-based, human; settings: SKOV-3, after 4 days following siRNA transfection
Description: as §2

SKOV-3 cells [3] = assay: Flow cytometry cell cycle analysis (propidium iodide); assay type: cell-based, human
Description: SKOV-3 cells transfected with either TSG101 or control siRNA were grown and harvested 4 and 6 days after transfection. 1×10^6 cells were trypsinized from 10 cm plates and transferred to FACS tubes, washed twice with PBS, and then fixed with 70% ethanol for 2 h on ice. Ethanol was removed by centrifugation and cells were rehydrated in PBS at room temperature for 5 min. Cells were centrifuged to remove PBS and stained with 1 ml of propidium iodide staining solution (0.1% Triton X-100, 0.2 mg/ml RNAase A, 0.05 mg/ml propidium iodide, prepared fresh) for 1 h at room temperature. Cellular DNA content was then determined on a Becton-Dickinson FACS-Scan apparatus.

HIF-1α mRNA = HIF-1α mRNA by RT-PCR in SKOV-3 cells; assay type: cell-based, human; settings: SKOV-3, 3 days following siRNA transfection
Description: as §3, §1

Substance: TSG101 siRNA: siRNA duplex from Dharmacon targeting TSG101 coding sequence 413-433, SEQ ID NO: 7 and 8 (chain 1 CCUCCAGUCUUCUCUCGUCTT; chain 2 TTGGAGGUCAGAAGAGAGCAG; chemistry not fully specified; one strand is listed 3' to 5')
- TSG101 expression (mRNA and protein) (TSG101): Suppression of TSG101 expression was confirmed
- CITED2 mRNA expression (CITED2 mRNA): significantly down-regulated
- cell number (cell growth) (SKOV-3 cells [1]; SKOV-3, counting over successive days, vs scrambled control siRNA): decrease dramatically in number beginning 5 days post transfection
- rate of cell growth, initial observations (SKOV-3 cells [1]; SKOV-3, up to 72 h posttransfection): no significant cellular effects on cell growth
- tumor volume (SKOV-3 cells [2]): significantly smaller; also recorded: reduced tumor growth
- p21 messenger RNA level (p21 mRNA): significantly upregulated
- cellular DNA content vs control siRNA (SKOV-3 cells [3]; SKOV-3, day 4): very similar
- sub-G1 apoptotic cell debris (SKOV-3 cells [3]; SKOV-3, day 4): not seen
- G1/G0 phase cells (SKOV-3 cells [3]; SKOV-3, day 6): decrease
- number of cells in G2/M phase (SKOV-3 cells [3]; SKOV-3, day 6): significant increase
- sub-G1 apoptotic cell debris (SKOV-3 cells [3]; SKOV-3, day 6): significant population
- HIF-1α mRNA expression (HIF-1α mRNA): significantly down-regulated
